As usually defined, the EC50 is the midpoint of the concentration-response curve.

The test can be described thus: Inhibition of NS2B-NS3 intramolecular cleavage in Dengue virus 2 infected in LLC-MK2 cells assessed as inhibition of viral replication measured afer 48 hrs by ELISA. In general terms: In an ELISA, binding on a coated surface is turned into a signal by an enzyme label.

Consider `O=C1c2c(O)ccc([N+](=O)[O-])c2C(=O)c2c([N+](=O)[O-])ccc(O)c21`, for which the EC50 amounted to 4.2 µM.

The record behind these values is BindingDB's records for doi:10.1016/j.ejmech.2021.113695 (Griffith University, 2021).
